Source: patent US9067898B1, “Isothiazole derivatives as GPR120 agonists for the treatment of type II diabetes” (Janssen Pharmaceutica NV, priority 2014, dated 2015)

Legend:
Type in all cases: cell-based
[1] = molecular target: T1, short form of the GPR120 receptor (GPR120S) (Homo sapiens, UniProt Q5NUL3); test: Human GPR120 DiscoveRx PathHunter Beta-Arrestin assay, Procedure β-arrestin B; settings: PathHunter CHO-K1 GPR120S β-Arrestin cell line, 5000 cells/well, read-out: hGPR120 β-arrestin B EC50
T1 construct: host or cells: PathHunter CHO-K1 GPR120S β-Arrestin Cell Line
In short: (§1)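 PathHunter CHO-K1 β-arrestin cells expressed long-form GPR120 (Procedure A, 3000 cells/well) or short-form GPR120 (Procedure B, 5000 cells/well). Compounds were serially diluted from 25 µM and incubated 90 min at 37 °C in HBSS/20 mM HEPES/0.1% BSA, pH 7.4. Luminescence was read after 60 min detection at RT; EC50 comes from % activity versus positive control, Hill slope fixed at 1.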

Human GPR120 short form = molecular target: T2, Human GPR120 short form (Homo sapiens, UniProt Q5NUL3); test: Human GPR120 calcium flux assay (FLIPR), Procedure Calcium B; settings: HEK-293 cells expressing human GPR120 short form, 4200 cells/well; read-out: GPR120 Ca2+ Assay B EC50
T2 construct: expressed in transfected cells
T2 sequence (Q5NUL3 1-361): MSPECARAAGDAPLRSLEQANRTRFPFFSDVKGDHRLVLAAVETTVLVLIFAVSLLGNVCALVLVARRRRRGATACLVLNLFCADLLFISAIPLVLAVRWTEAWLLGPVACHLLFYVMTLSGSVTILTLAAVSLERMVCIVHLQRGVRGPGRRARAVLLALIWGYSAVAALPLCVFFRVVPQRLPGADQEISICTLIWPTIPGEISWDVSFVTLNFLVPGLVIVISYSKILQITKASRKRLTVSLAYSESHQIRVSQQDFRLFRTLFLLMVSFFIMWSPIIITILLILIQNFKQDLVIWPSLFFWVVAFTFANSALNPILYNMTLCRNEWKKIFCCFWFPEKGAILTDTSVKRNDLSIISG
Excerpt: This in vitro assay serves to assess test compound agonist activity against the short splice variant (SVS with Accession number NM_001195755.1 confirmed by sequencing data) of the GPR120 receptor. The Human Short splice variant #2 (NM_001195755.1) is missing an in-frame coding exon compared to variant 1 (the Human Long splice variant NM_181745.3), resulting in a shorter isoform (GPR120-S) lacking a 16 aa protein segment compared to isoform GPR120-L. The assay platform utilizes HEK-293 cells stably transfected to express the Human GPR120 short form. These cells are first loaded with the Ca^+2 sensitive dye, Fluo-4 NW. Upon stimulation, intracellular released Ca^+2 can bind to the dye and alter its fluorescence intensity. This increase in fluorescence signal, and thus the flux in intracellular [Ca^2+], is detected and quantitated by fluorescence imaging using a FLIPR reader. The effect of the agonist is measured as a function of concentration and used to calculate an EC50 based upon a response curve.
In this procedure 4200 cells/well were employed.
A Human GPR120 clone (Genbank accession number NM_001195755.1) was placed into the pcDNA3.1 mammalian expression vector carrying the neomycin resistance gene. A stable mammalian cell was generated by placing the above clone into a HEK293 background. Clonal cells responding to long chain fatty acids had expression levels of GPR120 confirmed by RT-qPCR. Human HEK-GPR120 cells were cultured in Dulbecco's Modified Eagle's Medium (DMEM)/F12 medium supplemented with 10% fetal bovine serum (FBS), 1% L-Glutamine and 1% penicillin/streptomycin and 0.5 mg/ml G-418. Cells were split 2 times a week to keep the cells in the log-phase growth.
In preparation for the assay, HEK cells stably transfected with Human GPR120 (2.5K cells per well in 25 uL growth medium) were seeded into 384-well plates and then incubated overnight (37° C., 5% CO2). The next day, the media was changed to 20 μL assay buffer and the cell starved for 1 h at 37° C. The dye loading solution (2× dye) was prepared using 10 mL assay buffer, 100 μL of 250 mM probenecid, 1 bottle of Component A, and 20 μl of dye in DMSO. Twenty μL of the 2× dye loading buffer was then added to each well. The plates were incubated at 37° C. for 30 min, then at room temperature for an additional 15 minutes, before performing the assay on FLIPR. Test compounds were prepared in assay buffer (2 uL of cpd+198 uL assay buffer, final DMSO in assay plate is 0.2%) at the desired concentration, more particularly at 100, 50, 25, 12.5, 6.25, 3.125, 1.562, 0.781, 0.391, 0.195, 0.098, 0.049, 0.024 and 0.012 μM.
The assay was performed on a FLIPR plate reader using the following parameters. Baseline was read for 10 seconds at 1 sec intervals. The program was set to transfer 10 μL of ligand from compound plate to cell plate after baseline reading. Aspiration was executed at: 10 μL/sec speed, 4.6 μL height; Dispensing was executed at: 30 μL/sec speed, 45 μL height. After compound addition, each well was read for 300 sec, with measurements collected at 1 sec intervals.
The kinetic data from the FLIPR was based upon a 5 minute window for data collection. The fluorescence of each sample well was used for individual calculations of a normalized RFU value, which was defined as maximum response minus the minimum response. The normalized fluorescence reading (RFU) was calculated as follows: RFU=Fmax−Fmin The data were fitted to a sigmoidal dose-response curve with a variable Hill slope (<2) using nonlinear regression with GraphPad Prism 5.0 to calculate the EC50 values. The Fitting Equation was: Y=Bottom+(Top−Bottom)/(1+10^((Log EC50−X)*HillSlope)), where X is the log of the concentration and Y is the response.

[2] = molecular target: T3, long form of human GPR120 (Homo sapiens, UniProt Q5NUL3); test: Human GPR120 DiscoveRx PathHunter Beta-Arrestin assay, Procedure β-arrestin A; settings: PathHunter CHO-K1 GPR120 β-Arrestin cell line, 3000 cells per well, read-out: hGPR120 β-arrestin A EC50
T3 construct: host or cells: PathHunter CHO-K1 GPR120 β-Arrestin Cell Line
In short: as §1

T1 sequence (P32121 whole entry partner, one chain of several): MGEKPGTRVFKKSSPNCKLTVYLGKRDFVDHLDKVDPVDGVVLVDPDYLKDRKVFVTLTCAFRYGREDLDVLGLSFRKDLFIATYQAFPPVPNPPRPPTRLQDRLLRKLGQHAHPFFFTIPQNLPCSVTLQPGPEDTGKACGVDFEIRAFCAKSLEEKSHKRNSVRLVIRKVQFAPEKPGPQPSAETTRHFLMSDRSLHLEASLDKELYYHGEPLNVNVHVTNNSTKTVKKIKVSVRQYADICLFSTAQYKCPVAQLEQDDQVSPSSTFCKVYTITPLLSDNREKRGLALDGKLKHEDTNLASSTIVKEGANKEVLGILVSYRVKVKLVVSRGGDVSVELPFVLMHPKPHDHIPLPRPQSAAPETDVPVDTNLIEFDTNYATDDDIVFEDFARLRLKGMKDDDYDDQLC
T3 sequence (Q5NUL3 1-377 isoform Q5NUL3-1): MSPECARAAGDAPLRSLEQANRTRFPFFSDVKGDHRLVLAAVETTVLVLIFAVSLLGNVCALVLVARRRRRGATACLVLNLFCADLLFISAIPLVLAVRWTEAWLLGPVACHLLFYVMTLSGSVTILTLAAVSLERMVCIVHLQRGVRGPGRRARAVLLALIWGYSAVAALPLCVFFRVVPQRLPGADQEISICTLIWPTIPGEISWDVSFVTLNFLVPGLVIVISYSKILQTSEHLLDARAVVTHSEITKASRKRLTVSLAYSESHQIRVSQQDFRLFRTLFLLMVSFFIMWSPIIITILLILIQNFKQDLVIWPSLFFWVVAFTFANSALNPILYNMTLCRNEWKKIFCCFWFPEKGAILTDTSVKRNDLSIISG
T3 sequence (P32121 whole entry partner): as the sequence (P32121 whole entry partner, one chain of several) above

## CCc1ccc(-c2nsc(C(F)(F)F)c2COc2c(F)cc(CCC(=O)O)cc2F)nc1 [Cpd 273, 3-(4-{[3-(5-Ethylpyridin-2-yl)-5-(trifluoromethyl)isothiazol-4-yl]methoxy}-3,5-difluorophenyl)propanoic acid]
[1]
  EC50: 0.721 µM
Human GPR120 short form
  EC50: 0.427 µM

## COc1ncc(-c2nsc(C(F)(F)F)c2COc2ccc(CCC(=O)O)c(C)c2C)s1 [Cpd 268, 3-(4-{[3-(2-Methoxy-1,3-thiazol-5-yl)-5-(trifluoromethyl)isothiazol-4-yl]methoxy}-2,3-dimethylphenyl)propanoic acid]
[1]
  EC50: 0.445 µM
Human GPR120 short form
  EC50: 0.473 µM

## OCCCc1cc(F)c(OCc2c(-c3ccc(Cl)cc3F)nsc2C(F)(F)F)c(F)c1 [Cpd 262, 3-(4-{[3-(4-Chloro-2-fluorophenyl)-5-(trifluoromethyl)isothiazol-4-yl]methoxy}-3,5-difluorophenyl)propan-1-ol]
[1]
  EC50: 0.08 µM
Human GPR120 short form
  EC50: 0.139 µM

## CC(Cc1ccc(OCc2c(-c3ncc(Cl)cc3F)nsc2C(F)(F)F)c(F)c1)C(=O)O (centres unmarked) [Cpd 266, 3-(4-{[3-(5-Chloro-3-fluoropyridin-2-yl)-5-(trifluoromethyl)isothiazol-4-yl]methoxy}-3-fluorophenyl)-2-methylpropanoic acid]
[1]
  EC50: 0.982 µM
Human GPR120 short form
  EC50: 0.289 µM

## COc1cc(OCc2c(Cl)nsc2-c2ccc(C)cc2F)ccc1CCC(=O)O [Cpd 258, 3-(4-{[3-Chloro-5-(2-fluoro-4-methylphenyl)isothiazol-4-yl]methoxy}-2-methoxyphenyl)propanoic acid]
Human GPR120 short form
  EC50: 0.21 µM

## Cc1ccc(-c2snc(Cl)c2COc2ccc(CCC(=O)O)c(C(F)(F)F)c2)c(C)c1 [Cpd 256, 3-[4-{[3-Chloro-5-(2,4-dimethylphenyl)isothiazol-4-yl]methoxy}-2-(trifluoromethyl)phenyl]propanoic acid]
Human GPR120 short form
  EC50: 0.986 µM

## Cc1ccc(-c2snc(Cl)c2COc2ccc(CCC(=O)O)c(C(C)F)c2)cc1 (centres unmarked) [Cpd 279, 3-[4-{[3-Chloro-5-(4-methylphenyl)isothiazol-4-yl]methoxy}-2-(1-fluoroethyl)phenyl]propanoic acid]
Human GPR120 short form
  EC50: 0.755 µM

## CC1CC=C(c2snc(Cl)c2COc2ccc(CCC(=O)O)c(C(F)(F)F)c2)CC1 (centres unmarked) [Cpd 276, 3-[4-{[3-Chloro-5-(4-methylcyclohex-1-en-1-yl)isothiazol-4-yl]methoxy}-2-(trifluoromethyl)phenyl]propanoic acid]
Human GPR120 short form
  EC50: 0.886 µM

## Cc1ccc(-c2snc(Cl)c2COc2c(F)cc(CCC(=O)O)cc2F)c(F)c1 [Cpd 252, 3-(4-{[3-Chloro-5-(2-fluoro-4-methylphenyl)isothiazol-4-yl]methoxy}-3,5-difluorophenyl)propanoic acid]
[2]
  EC50: 0.191 µM
Human GPR120 short form
  EC50: 0.045 µM

## Cc1cc(OCc2c(Cl)nsc2-c2ccccc2C)ccc1CCC(=O)O [Cpd 257, 3-(4-{[3-Chloro-5-(2-methylphenyl)isothiazol-4-yl]methoxy}-2-methylphenyl)propanoic acid]
Human GPR120 short form
  EC50: 1.06 µM

## Cc1ccc(-c2snc(Cl)c2COc2ccc(CCC(=O)O)c(C(C)(F)F)c2)cc1 [Cpd 278, 3-[4-{[3-Chloro-5-(4-methylphenyl)isothiazol-4-yl]methoxy}-2-(1,1-difluoroethyl)phenyl]propanoic acid]
Human GPR120 short form
  EC50: 0.601 µM

## Cc1c(CCC(=O)O)ccc(OCc2c(-c3cnc(Cl)s3)nsc2C(F)(F)F)c1C [Cpd 269, 3-(4-{[3-(2-Chloro-1,3-thiazol-5-yl)-5-(trifluoromethyl)isothiazol-4-yl]methoxy}-2,3-dimethylphenyl)propanoic acid]
[1]
  EC50: 0.676 µM
Human GPR120 short form
  EC50: 0.194 µM

## Cc1cc(OCc2c(-c3ccc(Cl)cc3)nsc2C(F)(F)F)c(F)cc1CCCO [Cpd 63, 3-(4-((3-(4-chlorophenyl)-5-(trifluoromethyl)isothiazol-4-yl)methoxy)-5-fluoro-2-methylphenyl)propan-1-61]
[1]
  EC50: 0.122 µM
Human GPR120 short form
  EC50: 0.2 µM

## N#Cc1ccc(-c2nsc(C(F)(F)F)c2COc2c(F)cc(CCC(=O)O)cc2F)cc1 [Cpd 261, 3-(4-{[3-(4-Cyanophenyl)-5-(trifluoromethyl)isothiazol-4-yl]methoxy}-3,5-difluorophenyl)propanoic acid]
[1]
  EC50: 0.332 µM
Human GPR120 short form
  EC50: 0.672 µM

## Cc1cc(OCc2c(-c3ccc(Cl)cc3)nsc2C(F)(F)F)ccc1CCC(=O)O [Cpd 275, 3-(4-{[3-(4-Chlorophenyl)-5-(trifluoromethyl)isothiazol-4-yl]methoxy}-2-methylphenyl)propanoic acid]
Human GPR120 short form
  EC50: 1.11 µM

## O=C(O)CCc1cc(F)c(OCc2c(-c3ccc(Cl)cn3)nsc2C(F)(F)F)c(F)c1 [Cpd 270, 3-(4-{[3-(5-Chloropyridin-2-yl)-5-(trifluoromethyl)isothiazol-4-yl]methoxy}-3,5-difluorophenyl)propanoic acid]
[1]
  EC50: 0.246 µM
Human GPR120 short form
  EC50: 0.108 µM

## COc1ccc(-c2nsc(C(F)(F)F)c2COc2c(F)cc(CCC(=O)O)cc2F)nc1 [Cpd 271, 3-(3,5-Difluoro-4-{[3-(5-methoxypyridin-2-yl)-5-(trifluoromethyl)isothiazol-4-yl]methoxy}phenyl)propanoic acid]
[1]
  EC50: 0.325 µM
Human GPR120 short form
  EC50: 0.242 µM

## O=C(O)CCc1ccc(OCc2c(-c3ccc(Cl)cc3)nsc2C(F)(F)F)cc1C(F)F [Cpd 274, 3-[4-{[3-(4-Chlorophenyl)-5-(trifluoromethyl)isothiazol-4-yl]methoxy}-2-(difluoromethyl)phenyl]propanoic acid]
Human GPR120 short form
  EC50: 3.98 µM

## COc1ccccc1-c1snc(Cl)c1COc1ccc(CCC(=O)O)c(C(F)(F)F)c1 [Cpd 260, 3-[4-{[3-Chloro-5-(2-methoxyphenyl)isothiazol-4-yl]methoxy}-2-(trifluoromethyl)phenyl]propanoic acid]
Human GPR120 short form
  EC50: 3.43 µM

## O=C(O)CCc1ccc(OCc2c(Cl)nsc2-c2ccccc2Cl)cc1C(F)(F)F [Cpd 259, 3-[4-{[3-Chloro-5-(2-chlorophenyl)isothiazol-4-yl]methoxy}-2-(trifluoromethyl)phenyl]propanoic acid]
Human GPR120 short form
  EC50: 0.261 µM

## Cc1ccccc1-c1snc(Cl)c1COc1ccc(CCC(=O)O)c(C(F)(F)F)c1 [Cpd 253, 3-[4-{[3-Chloro-5-(2-methylphenyl)isothiazol-4-yl]methoxy}-2-(trifluoromethyl)phenyl]propanoic acid]
Human GPR120 short form
  EC50: 0.349 µM

## Cc1ccccc1-c1snc(Cl)c1COc1ccc(CCC(=O)O)cc1 [Cpd 254, 3-(4-{[3-Chloro-5-(2-methylphenyl)isothiazol-4-yl]methoxy}phenyl)propanoic acid]
Human GPR120 short form
  EC50: 0.401 µM
